Data from patent US6444617B1, “Fused-heterocycle dicarboxylic acid diamide derivatives or salts thereof, herbicide and usage thereof” (Nihon Nohyaku Co., Ltd., priority 1998, dated 2002).

Assays:
Type in all cases: in vivo
[1] = test system: bird's eye speedwell (Veronica persica Poir.), Vp; assay: Test Example 3: herbicidal effect on upland weeds before emergence; conditions: dosage 5 kg/ha
Summary of the method: (§1)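 Steps: sow upland weed seeds; spray liquid formulation of active ingredient at prescribed concentration prior to emergence; after 14 days, calculate weed-killing rate; judge herbicidal effect.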

[2] = test system: forxtail grass (Alopecurus aequalis var. amurensis Ohwi), Am; assay: as above; conditions: foxtail grass, dosage 5 kg/ha
Summary of the method: as §1

[3] = test system: velvetleaf (Abutilon theophtasti L.), At; assay: as above; conditions: dosage 5 kg/ha
Summary of the method: as §1

[4] = test system: cocklebur (Xanthium strumarium L.), Xs; assay: as above; conditions: dosage 5 kg/ha
Summary of the method: as §1

[5] = test system: cleavers (Galium aparine L.), Ga; assay: as above; conditions: dosage 5 kg/ha
Summary of the method: as §1

[6] = test system: barnyard grass (Echinochloa crus-galli Beauv.), Ec; assay: as above; conditions: dosage 5 kg/ha
Summary of the method: as §1

[7] = test system: bulrush (Scirpus juncoides Roxb.); assay: Test Example 2: herbicidal effect on paddy field weeds after emergence; conditions: Dosage 5 kg/ha; one-leaved stage; 21 days after treatment
Summary of the method: (§2)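 Weeds in flooded paddy-soil pots were grown to the one-leaved stage, then the soil was treated with the compound solution at a set dosage.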

[8] = test system: barnyard grass (Echinochloa crus-galli Beauv.); assay: as above; conditions: Dosage 5 kg/ha; one-leaved stage; 21 days after treatment
Summary of the method: as §2

[9] = test system: monochoria (Monochoria vaginalis Presl); assay: as above; conditions: Dosage 5 kg/ha; one-leaved stage; 21 days after treatment
Summary of the method: as §2

soybean plant (So) = assay: Test Example 3: phytotoxicity to upland crop plants, treatment before emergence; conditions: dosage 5 kg/ha
Summary of the method: (§3)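 Pre-emergence treatment: a liquid preparation containing a prescribed concentration of test compound was sprayed, and injury to soybean and wheat was assessed 14 days later. Phytotoxicity was judged against a scoring criterion, alongside weed-killing rate.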

wheat (Wh) = assay: as above; conditions: dosage 5 kg/ha
Summary of the method: as §3

[10] = test system: bird's eye speedwell (Veronica persica Poir.), Vp; assay: Test Example 4: herbicidal effect on upland weeds after emergence; conditions: dosage 5 kg/ha; sprayed after emergence; judged 14 days after treatment
Summary of the method: (§4)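 Weeds, soybean and wheat were sown in soil-filled vats, covered with soil and grown to set leaf stages before a post-emergence spray of an agent containing the compound at a prescribed concentration. Weed-killing rate and crop phytotoxicity were assessed 14 days after treatment.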

[11] = test system: forxtail grass (Alopecurus aequalis var. amurensis Ohwi), Am; assay: as above; conditions: dosage 5 kg/ha; sprayed after emergence; judged 14 days after treatment
Summary of the method: as §4

[12] = test system: velvetleaf (Abutilon theophtasti L.), At; assay: as above; conditions: dosage 5 kg/ha; sprayed after emergence; judged 14 days after treatment
Summary of the method: as §4

[13] = test system: cocklebur (Xanthium strumarium L.), Xs; assay: as above; conditions: dosage 5 kg/ha; sprayed after emergence; judged 14 days after treatment
Summary of the method: as §4

[14] = test system: cleavers (Galium aparine L.), Ga; assay: as above; conditions: dosage 5 kg/ha; sprayed after emergence; judged 14 days after treatment
Summary of the method: as §4

[15] = test system: barnyard grass (Echinochloa crus-galli Beauv.), Ec; assay: as above; conditions: dosage 5 kg/ha; sprayed after emergence; judged 14 days after treatment
Summary of the method: as §4

soybean plant = assay: Test Example 4: phytotoxicity to upland crop plants, treatment after emergence; conditions: dosage 5 kg/ha, sprayed after emergence, judged 14 days after treatment
Summary of the method: as §4

wheat = assay: as above; conditions: dosage 5 kg/ha, sprayed after emergence, judged 14 days after treatment
Summary of the method: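 Scores of weed-killing rate, with crop phytotoxicity, come from inspection 14 days after plants in soil vats, grown to specified leaf stages, are sprayed with a formulation holding the compound at a prescribed concentration.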

[16] = test system: bulrush (Scirpus juncoides Roxb.); assay: Test Example 1: herbicidal effect on paddy field weeds before emergence; conditions: Dosage 5 kg/ha
Summary of the method: (§5)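 Soil in pots is brought to paddy state and seeded with barnyard grass and bulrush; before germination, the soil receives a predetermined dosage of test compound in solution. After twenty-one days, control rate relative to untreated pots is calculated and graded.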

[17] = test system: barnyard grass (Echinochloa crus-galli Beauv.); assay: as above; conditions: Dosage 5 kg/ha
Summary of the method: as §5

SMILES	Herbicidal effect Vp [1]	Herbicidal effect Am [2]	Herbicidal effect At [3]	Herbicidal effect Xs [4]	Herbicidal effect Ga [5]	Herbicidal effect Ec [6]	Post-emergence treatment Bulrush (herbicidal effect) [7]	Post-emergence treatment Barnyard grass (herbicidal effect) [8]	Post-emergence treatment Monochoria (herbicidal effect) [9]	Phytotoxicity So (soybean plant (So))	Phytotoxicity Wh (wheat (Wh))	Herbicidal effect Vp [10]	Herbicidal effect Am [11]	Herbicidal effect At [12]	Herbicidal effect Xs [13]	Herbicidal effect Ga [14]	Herbicidal effect Ec [15]	Phytotoxicity So (soybean plant)	Phytotoxicity Wh (wheat)	Pre-emergence treatment Bulrush (herbicidal effect) [16]	also measured
CCCNC(=O)c1nc2c(cc1C(=O)Nc1c(CC)ccc(Cl)c1CC)CSCC2 [compound 558]	5 (Weed-killing rate is 100%.)	5 (Weed-killing rate is 100%.)	5 (Weed-killing rate is 100%.)	5 (Weed-killing rate is 100%.)	5 (Weed-killing rate is 100%.)	5 (Weed-killing rate is 100%.)	5 (Weed-killing rate is 100%.)	5 (Weed-killing rate is 100%.)	5 (Weed-killing rate is 100%.)	5 (Crop-killing rate is 100%.)	5 (Crop-killing rate is 100%.)	5 (Weed-killing rate is 100%.)	5 (Weed-killing rate is 100%.)	5 (Weed-killing rate is 100%.)	5 (Weed-killing rate is 100%.)	5 (Weed-killing rate is 100%.)	5 (Weed-killing rate is 100%.)	5 (Crop-killing rate is 100%.)	5 (Crop-killing rate is 100%.)	5 (Weed-killing rate is 100%.)	Pre-emergence treatment Barnyard grass (herbicidal effect) [17]: 5 (Weed-killing rate is 100%.)
CCNC(=O)c1nc2occc2cc1C(=O)Nc1c(CC)ccc(Cl)c1CC [compound 774]	5 (Weed-killing rate is 100%.)	5 (Weed-killing rate is 100%.)	5 (Weed-killing rate is 100%.)	5 (Weed-killing rate is 100%.)	5 (Weed-killing rate is 100%.)	5 (Weed-killing rate is 100%.)	5 (Weed-killing rate is 100%.)	5 (Weed-killing rate is 100%.)	5 (Weed-killing rate is 100%.)	4 (Crop-killing rate is 90-99%.)	5 (Crop-killing rate is 100%.)	5 (Weed-killing rate is 100%.)	5 (Weed-killing rate is 100%.)	5 (Weed-killing rate is 100%.)	5 (Weed-killing rate is 100%.)	5 (Weed-killing rate is 100%.)	5 (Weed-killing rate is 100%.)	4 (Crop-killing rate is 90-99%.)	5 (Crop-killing rate is 100%.)	5 (Weed-killing rate is 100%.)	Pre-emergence treatment Barnyard grass (herbicidal effect) [17]: 5 (Weed-killing rate is 100%.)
CCCNC(=O)c1nc2occc2cc1C(=O)Nc1c(CC)ccc(Cl)c1CC [compound 775]	5 (Weed-killing rate is 100%.)	5 (Weed-killing rate is 100%.)	5 (Weed-killing rate is 100%.)	5 (Weed-killing rate is 100%.)	5 (Weed-killing rate is 100%.)	5 (Weed-killing rate is 100%.)	5 (Weed-killing rate is 100%.)	5 (Weed-killing rate is 100%.)	5 (Weed-killing rate is 100%.)	5 (Crop-killing rate is 100%.)	5 (Crop-killing rate is 100%.)	5 (Weed-killing rate is 100%.)	5 (Weed-killing rate is 100%.)	5 (Weed-killing rate is 100%.)	5 (Weed-killing rate is 100%.)	5 (Weed-killing rate is 100%.)	5 (Weed-killing rate is 100%.)	5 (Crop-killing rate is 100%.)	5 (Crop-killing rate is 100%.)	5 (Weed-killing rate is 100%.)	Pre-emergence treatment Barnyard grass (herbicidal effect) [17]: 5 (Weed-killing rate is 100%.)
Cc1c(Cl)cccc1NC(=O)c1cc2ccoc2nc1C(=O)NC1CCCC1 [compound 796]	5 (Weed-killing rate is 100%.)	5 (Weed-killing rate is 100%.)	5 (Weed-killing rate is 100%.)	4 (Weed-killing rate is 90-99%.)	5 (Weed-killing rate is 100%.)	5 (Weed-killing rate is 100%.)	5 (Weed-killing rate is 100%.)	5 (Weed-killing rate is 100%.)	5 (Weed-killing rate is 100%.)	4 (Crop-killing rate is 90-99%.)	5 (Crop-killing rate is 100%.)	5 (Weed-killing rate is 100%.)	5 (Weed-killing rate is 100%.)	5 (Weed-killing rate is 100%.)	4 (Weed-killing rate is 90-99%.)	4 (Weed-killing rate is 90-99%.)	5 (Weed-killing rate is 100%.)	4 (Crop-killing rate is 90-99%.)	4 (Crop-killing rate is 90-99%.)	5 (Weed-killing rate is 100%.)	Pre-emergence treatment Barnyard grass (herbicidal effect) [17]: 5 (Weed-killing rate is 100%.)
CCNC(=O)c1nc2sccc2cc1C(=O)Nc1c(CC)ccc(Cl)c1CC [compound 798]	5 (Weed-killing rate is 100%.)	5 (Weed-killing rate is 100%.)	5 (Weed-killing rate is 100%.)	5 (Weed-killing rate is 100%.)	5 (Weed-killing rate is 100%.)	5 (Weed-killing rate is 100%.)	5 (Weed-killing rate is 100%.)	5 (Weed-killing rate is 100%.)	5 (Weed-killing rate is 100%.)	4 (Crop-killing rate is 90-99%.)	5 (Crop-killing rate is 100%.)	5 (Weed-killing rate is 100%.)	5 (Weed-killing rate is 100%.)	5 (Weed-killing rate is 100%.)	5 (Weed-killing rate is 100%.)	5 (Weed-killing rate is 100%.)	5 (Weed-killing rate is 100%.)	4 (Crop-killing rate is 90-99%.)	5 (Crop-killing rate is 100%.)	5 (Weed-killing rate is 100%.)	Pre-emergence treatment Barnyard grass (herbicidal effect) [17]: 5 (Weed-killing rate is 100%.)
CCCNC(=O)c1nc2sccc2cc1C(=O)Nc1c(CC)ccc(Cl)c1CC [compound 799]	5 (Weed-killing rate is 100%.)	5 (Weed-killing rate is 100%.)	5 (Weed-killing rate is 100%.)	5 (Weed-killing rate is 100%.)	5 (Weed-killing rate is 100%.)	5 (Weed-killing rate is 100%.)	5 (Weed-killing rate is 100%.)	5 (Weed-killing rate is 100%.)	5 (Weed-killing rate is 100%.)	5 (Crop-killing rate is 100%.)	5 (Crop-killing rate is 100%.)	5 (Weed-killing rate is 100%.)	5 (Weed-killing rate is 100%.)	5 (Weed-killing rate is 100%.)	5 (Weed-killing rate is 100%.)	5 (Weed-killing rate is 100%.)	5 (Weed-killing rate is 100%.)	5 (Crop-killing rate is 100%.)	5 (Crop-killing rate is 100%.)	5 (Weed-killing rate is 100%.)	Pre-emergence treatment Barnyard grass (herbicidal effect) [17]: 5 (Weed-killing rate is 100%.)
